Laboratory results as given in ChEMBL document CHEMBL5338710, “Discovery of dearomatized isoprenylated acylphloroglucinols with colon tumor suppressive activities in mice via inhibiting NFκB-FAT1-PDCD4 signaling activation” (Eur J Med Chem, 2022).
The source made the active and inactive calls. No cut-off for these calls is given here.

Tests used:
HCT-116 [1] = assay: Antiproliferative activity against human HCT-116 cells assessed as reduction in cell viability measured after 48 hrs by BrdU staining based assay; type: functional; conditions: HCT-116, 48 h
[2] = Toxicity in nude mouse xenografted with human HCT-116 cells assessed as change in plasma AST level at 3 to 4 mg/kg, iv measured for 23 days; type: organism-based; conditions: in vivo, 552 h, dose 3-4 mg/kg, time 23 day
HCT-116 [3] = assay: Antitumor activity against human HCT-116 cells xenografted in nude mouse assessed as decrease in tumor volume at 3 to 4 mg/kg, iv measured for 23 days; type: functional, organism-based; conditions: dose 3-4 mg/kg, time 23.0 day
SW480 = assay: Antiproliferative activity against human SW480 cells assessed as reduction in cell viability measured after 48 hrs by MTT assay; type: functional, cell-based; conditions: SW480, 48 h
HCT-116 [4] = assay: Induction of cell cycle arrest in human HCT-116 cells assessed as upregulation of p53 mRNA expression at 2.5 to 5 uM measured after 24 hrs by qRT-PCR analysis; type: functional, cell-based; conditions: dose 2.5-5 µM
HCT-116 [5] = assay: Induction of apoptosis in human HCT-116 cells assessed as decrease in Bcl2 mRNA expression at 5 uM measured for 48 hrs by qRT-PCR analysis; type: functional, cell-based
HCT-116 [6] = assay: Antiproliferative activity against human HCT-116 cells assessed as reduction in cell viability measured after 48 hrs by MTT assay; type: functional, cell-based; conditions: HCT-116, 48 h
[7] = molecular target: T1, Nuclear factor NF-kappa-B complex (Homo sapiens) (UniProt Q00653+P19838+Q04206); assay: Inhibition of TNFalpha induced-NFkB phosphorylation in human HCT-116 cells at 1 to 5 uM pretreated for 24 hrs followed by TNFalpha induction and measured after 24 hrs by Western blot analysis; type: cell-based; conditions: dose 1-5 µM, time 48.0 hrs
T1 sequence (P19838 whole entry, looked up): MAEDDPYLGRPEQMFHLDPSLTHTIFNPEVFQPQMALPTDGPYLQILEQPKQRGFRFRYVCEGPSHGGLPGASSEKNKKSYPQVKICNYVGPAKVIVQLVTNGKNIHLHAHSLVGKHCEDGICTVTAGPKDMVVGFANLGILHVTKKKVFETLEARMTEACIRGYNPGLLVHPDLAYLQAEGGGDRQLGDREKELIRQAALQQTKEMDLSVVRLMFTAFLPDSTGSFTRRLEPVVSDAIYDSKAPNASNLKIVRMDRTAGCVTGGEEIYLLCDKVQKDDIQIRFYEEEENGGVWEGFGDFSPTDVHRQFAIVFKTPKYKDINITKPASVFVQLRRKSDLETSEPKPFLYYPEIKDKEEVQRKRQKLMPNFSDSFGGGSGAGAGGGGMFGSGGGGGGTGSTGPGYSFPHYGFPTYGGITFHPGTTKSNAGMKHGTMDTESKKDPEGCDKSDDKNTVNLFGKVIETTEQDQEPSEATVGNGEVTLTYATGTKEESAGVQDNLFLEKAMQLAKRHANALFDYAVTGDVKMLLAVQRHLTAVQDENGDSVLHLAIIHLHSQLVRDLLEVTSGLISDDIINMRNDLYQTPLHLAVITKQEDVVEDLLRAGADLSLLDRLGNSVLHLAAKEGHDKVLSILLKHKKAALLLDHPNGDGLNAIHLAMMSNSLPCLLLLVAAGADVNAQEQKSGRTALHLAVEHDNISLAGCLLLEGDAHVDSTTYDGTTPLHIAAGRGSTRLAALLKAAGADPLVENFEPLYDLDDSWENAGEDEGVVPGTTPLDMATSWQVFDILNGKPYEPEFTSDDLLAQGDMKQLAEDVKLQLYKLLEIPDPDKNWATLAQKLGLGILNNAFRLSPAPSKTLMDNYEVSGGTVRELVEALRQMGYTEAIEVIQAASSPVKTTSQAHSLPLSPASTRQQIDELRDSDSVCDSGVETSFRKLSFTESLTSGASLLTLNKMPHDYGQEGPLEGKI
T1 sequence (Q00653 whole entry, looked up): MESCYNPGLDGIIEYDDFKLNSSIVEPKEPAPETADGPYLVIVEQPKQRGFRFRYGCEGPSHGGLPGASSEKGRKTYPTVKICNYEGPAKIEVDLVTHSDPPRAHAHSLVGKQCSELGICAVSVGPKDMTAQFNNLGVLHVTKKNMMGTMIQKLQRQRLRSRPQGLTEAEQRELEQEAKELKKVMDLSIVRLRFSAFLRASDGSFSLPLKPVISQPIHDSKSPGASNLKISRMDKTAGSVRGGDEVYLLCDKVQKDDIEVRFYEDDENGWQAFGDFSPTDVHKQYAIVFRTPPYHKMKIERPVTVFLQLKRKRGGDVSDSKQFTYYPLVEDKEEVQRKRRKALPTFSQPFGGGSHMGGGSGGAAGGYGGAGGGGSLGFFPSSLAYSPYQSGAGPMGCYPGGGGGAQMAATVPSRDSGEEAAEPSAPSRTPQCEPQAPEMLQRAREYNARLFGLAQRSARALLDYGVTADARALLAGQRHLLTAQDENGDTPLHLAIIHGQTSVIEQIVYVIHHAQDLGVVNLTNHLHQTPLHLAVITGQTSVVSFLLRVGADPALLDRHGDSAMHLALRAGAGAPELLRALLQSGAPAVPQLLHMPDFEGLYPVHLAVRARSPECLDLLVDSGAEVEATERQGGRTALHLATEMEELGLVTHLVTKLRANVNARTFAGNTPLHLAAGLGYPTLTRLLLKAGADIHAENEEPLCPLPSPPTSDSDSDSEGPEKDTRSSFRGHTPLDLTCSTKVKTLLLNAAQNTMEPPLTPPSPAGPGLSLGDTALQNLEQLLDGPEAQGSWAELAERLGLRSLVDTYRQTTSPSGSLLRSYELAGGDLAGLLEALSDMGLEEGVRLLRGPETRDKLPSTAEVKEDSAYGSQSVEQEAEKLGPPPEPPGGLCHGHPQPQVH
T1 sequence (Q04206 whole entry, looked up): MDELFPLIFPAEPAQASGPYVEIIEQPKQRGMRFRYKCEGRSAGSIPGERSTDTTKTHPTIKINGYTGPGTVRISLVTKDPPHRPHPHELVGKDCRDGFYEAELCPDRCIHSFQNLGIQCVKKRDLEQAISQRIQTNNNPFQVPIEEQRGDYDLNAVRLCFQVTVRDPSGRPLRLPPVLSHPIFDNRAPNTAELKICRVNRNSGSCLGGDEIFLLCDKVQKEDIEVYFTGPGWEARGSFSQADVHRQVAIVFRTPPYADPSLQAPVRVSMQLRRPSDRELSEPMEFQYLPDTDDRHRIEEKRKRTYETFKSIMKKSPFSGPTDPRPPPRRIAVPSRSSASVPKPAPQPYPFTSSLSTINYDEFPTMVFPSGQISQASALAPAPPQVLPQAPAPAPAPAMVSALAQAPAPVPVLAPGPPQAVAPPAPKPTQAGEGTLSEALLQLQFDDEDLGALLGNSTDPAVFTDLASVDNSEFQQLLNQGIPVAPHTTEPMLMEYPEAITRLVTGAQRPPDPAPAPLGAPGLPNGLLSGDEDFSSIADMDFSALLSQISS

HCT-116 [8] = assay: Antitumor activity against human HCT-116 cells xenografted in iv dosed nude mouse assessed as decrease in tumor volume measured for 23 days; type: functional, organism-based; conditions: dose 3-4 mg/kg, time 23.0 day
HCT-116 [9] = assay: Antitumor activity against human HCT-116 cells xenografted in nude mouse model assessed as reduction in FAT1 expression in tumor tissue at 3 to 4 mg/kg, iv administered for 23 days by IHC analysis; type: functional, organism-based; conditions: dose 3-4 mg/kg, time 23.0 day
HCT-116 [10] = assay: Antitumor activity against human HCT-116 cells xenografted in nude mouse assessed as reduction in tumor weight at 3 to 4 mg/kg, iv measured for 23 days; type: functional, organism-based; conditions: dose 3-4 mg/kg, time 23.0 day
HCT-116 [11] = assay: Antitumor activity against human HCT-116 cells xenografted in nude mouse assessed as decrease in tumor volume at 4 mg/kg, iv measured at day 9; type: functional, organism-based; conditions: time 9.0 day
HCT-116 [12] = assay: Induction of cell cycle arrest in human HCT-116 cells assessed as accumulation of cells at G2 phase at 2.5 to 5 uM measured after 48 hrs by PI staining based flow cytometry method; type: functional; conditions: dose 2.5-5 µM
HCT-116 [13] = assay: Antitumor activity against human HCT-116 cells xenografted in nude mouse model assessed as reduction in Ki67 expression in tumor tissue at 3 to 4 mg/kg, iv administered for 23 days by […] analysis; type: functional, organism-based; conditions: dose 3-4 mg/kg, time 23.0 day
HCT-116 [14] = assay: Induction of apoptosis in human HCT-116 cells at 5 uM measured for 48 hrs by annexin V/PI staining based analysis; type: functional, cell-based
[15] = molecular target: T1, Nuclear factor NF-kappa-B complex (Homo sapiens); assay: Inhibition of TNFalpha induced-NFkB phosphorylation in human HCT-116 cells at 5 uM pretreated for 24 hrs followed by TNFalpha induction and measured after 24 hrs by Western blot analysis; type: cell-based; conditions: time 48.0 hrs
[16] = Toxicity in nude mouse xenografted with human HCT-116 cells assessed as change in plasma LDH level at 3 to 4 mg/kg, iv measured for 23 days; type: organism-based; conditions: in vivo, 552 h, dose 3-4 mg/kg, time 23 day
HT-29 = assay: Antiproliferative activity against human HT-29 cells assessed as reduction in cell viability measured after 48 hrs by MTT assay; type: functional, cell-based; conditions: HT-29, 48 h
[17] = Toxicity in nude mouse xenografted with human HCT-116 cells assessed as change in plasma ALT level at 3 to 4 mg/kg, iv measured for 23 days; type: organism-based; conditions: in vivo, 552 h, dose 3-4 mg/kg, time 23 day
HCT-116 [18] = assay: Induction of G2/M phase cell cycle arrest in human HCT-116 cells assessed as decrease in cyclin A2 mRNA expression at 2.5 to 5 uM measured after 24 hrs by qRT-PCR analysis; type: functional, cell-based; conditions: dose 2.5-5 µM
[19] = Antiproliferative activity against human HS27 cells assessed as reduction in cell viability measured after 48 hrs by MTT assay; type: toxicity, cell-based
HCT-116 [20] = assay: Antitumor activity against human HCT-116 cells xenografted in nude mouse model assessed as increase in p53 protein expression in tumor tissue at 3 to 3.5 mg/kg, iv administered for 23 days by Western blot analysis; type: functional, organism-based; conditions: dose 3-3.5 mg/kg, time 23.0 day
HCT-116 [21] = assay: Induction of apoptosis in human HCT-116 cells assessed as increase in Bax mRNA expression at 5 uM measured for 48 hrs by qRT-PCR analysis; type: functional, cell-based
[22] = Toxicity in nude mouse xenografted with human HCT-116 cells assessed as body weight loss at 3 to 4 mg/kg, iv measured for 23 days; type: organism-based; conditions: in vivo, 552 h, dose 3-4 mg/kg, time 23 day
HCT-116 [23] = assay: Induction of cell cycle arrest in human HCT-116 cells assessed as upregulation of p21 mRNA expression at 2.5 to 5 uM measured after 24 hrs by qRT-PCR analysis; type: functional, cell-based; conditions: dose 2.5-5 µM
[24] = Toxicity in nude mouse xenografted with human HCT-116 cells assessed as effect on body weight at 3 to 4 mg/kg, iv measured for 23 days; type: organism-based; conditions: in vivo, 552 h, dose 3-4 mg/kg, time 23 day
HCT-116 [25] = assay: Induction of cell cycle arrest in human HCT-116 cells assessed as upregulation of 14-3-3sigma mRNA expression at 2.5 to 5 uM measured after 24 hrs by qRT-PCR analysis; type: functional, cell-based; conditions: dose 2.5-5 µM
HCT-116 [26] = assay: Induction of cell cycle arrest in human HCT-116 cells assessed as upregulation of p53 protein expression at 2.5 to 5 uM measured for 48 hrs by Western blot analysis; type: functional, cell-based; conditions: dose 2.5-5 µM
[27] = Toxicity in nude mouse xenografted with human HCT-116 cells assessed as change in plasma CK level at 3 to 4 mg/kg, iv measured for 23 days; type: organism-based; conditions: in vivo, 552 h, dose 3-4 mg/kg, time 23 day
HCT-116 [28] = assay: Upregulation of SERPINE1 mRNA expression in human HCT-116 cells at 2.5 to 5 uM measured after 24 hrs by qRT-PCR analysis; type: functional, cell-based; conditions: dose 2.5-5 µM
HCT-116 [29] = assay: Downregulation of FAT1 protein expression in human HCT-116 cells measured at 24 to 48 hrs by Western blot analysis; type: functional, cell-based; conditions: dose 0.5-5 µM, time 24-48 hrs
HCT-116 [30] = assay: Induction of G2/M phase cell cycle arrest in human HCT-116 cells assessed as decrease in cyclin A2 protein expression at 2.5 to 5 uM measured for 48 hrs by Western blot analysis; type: functional, cell-based; conditions: dose 2.5-5 µM
HCT-116 [31] = assay: Downregulation of FAT1 mRNA expression in human HCT-116 cells at 2.5 to 5 uM measured after 24 hrs by qRT-PCR analysis; type: functional, cell-based; conditions: dose 2.5-5 µM
HCT-116 [32] = assay: Downregulation of PDCD4 mRNA expression in human HCT-116 cells by qRT-PCR analysis; type: functional, cell-based; conditions: dose 1-5 µM
[33] = Antiproliferative activity against human PBMC cells assessed as reduction in cell viability measured after 48 hrs by MTT assay; type: toxicity, cell-based
HCT-116 [34] = assay: Antitumor activity against human HCT-116 cells xenografted in iv dosed nude mouse model assessed as increase in apoptosis in tumor tissue measured for 23 days by TUNEL staining based analysis; type: functional, organism-based; conditions: dose 3-4 mg/kg, time 23.0 day
HCT-116 [35] = assay: Antiproliferative activity against human HCT-116 cells assessed as reduction in cell viability at 5 uM measured after 48 hrs by MTT assay; type: functional, cell-based
HCT-116 [36] = assay: Induction of G2/M phase cell cycle arrest in human HCT-116 cells assessed as decrease in CDK1 protein expression at 2.5 to 5 uM measured for 48 hrs by Western blot analysis; type: functional, cell-based; conditions: dose 2.5-5 µM

C=C(C)[C@H]1CC[C@@](C)(O)[C@@H](C2=C(O)[C@@](C)(CC=C(C)C)C(=O)C(C(=O)C(C)C)=C2O)C1
IC50 (HCT-116 [1]): 1.53 µM | Activity [2]: Non-Toxic | Activity (HCT-116 [3]): Active | IC50 (SW480): 22.2 µM | Activity (HCT-116 [4]): Active | Activity (HCT-116 [5]): Active | IC50 (HCT-116 [6]): 4.37 µM | inhibition [7]: inactive | Activity (HCT-116 [8]): Dose-Dependent Effect | Activity (HCT-116 [9]): Active | Activity (HCT-116 [10]): Active | Activity (HCT-116 [11]): Active | Activity (HCT-116 [12]): Active | Activity (HCT-116 [13]): Active | Activity (HCT-116 [14]): Active | inhibition [15]: Active | Activity [16]: Non-Toxic | IC50 (HT-29): 11.6 µM | Activity [17]: Non-Toxic | Activity (HCT-116 [18]): Active | IC50 at 48 h [19]: > 100 µM | Activity (HCT-116 [20]): Active | Activity (HCT-116 [21]): Active | Activity [22]: Non-Toxic | Activity (HCT-116 [23]): Active | Activity [24]: Non-Toxic | Activity (HCT-116 [25]): Active | Activity (HCT-116 [26]): Active | Activity [27]: Non-Toxic | Activity (HCT-116 [28]): Active | Activity (HCT-116 [29]): Dose-Dependent Effect | Activity (HCT-116 [30]): Active | Activity (HCT-116 [31]): Active | Activity (HCT-116 [32]): Dose-Dependent Effect | IC50 at 48 h [33]: > 100 µM | Activity (HCT-116 [34]): Dose-Dependent Effect | Activity (HCT-116 [35]): Active | Activity (HCT-116 [36]): Active
